Measured values taken from paper PMC7200739, “Small molecule inhibition of human cGAS reduces total cGAMP output and cytokine expression in cells” (Scientific Reports, 2020).

Target: human CYCLIC GMP-AMP SYNTHASE (h-cGAS) (Homo sapiens, UniProt Q8N884)
Assay: IFN-luciferase reporter dose response in HT-DNA-stimulated THP-1 cells; LC-MS/MS of intracellular cGAMP in RAW KO-cGAS cells expressing h-cGAS
Type: cell-based

Chain of human CYCLIC GMP-AMP SYNTHASE (h-cGAS) (Q8N884 whole entry): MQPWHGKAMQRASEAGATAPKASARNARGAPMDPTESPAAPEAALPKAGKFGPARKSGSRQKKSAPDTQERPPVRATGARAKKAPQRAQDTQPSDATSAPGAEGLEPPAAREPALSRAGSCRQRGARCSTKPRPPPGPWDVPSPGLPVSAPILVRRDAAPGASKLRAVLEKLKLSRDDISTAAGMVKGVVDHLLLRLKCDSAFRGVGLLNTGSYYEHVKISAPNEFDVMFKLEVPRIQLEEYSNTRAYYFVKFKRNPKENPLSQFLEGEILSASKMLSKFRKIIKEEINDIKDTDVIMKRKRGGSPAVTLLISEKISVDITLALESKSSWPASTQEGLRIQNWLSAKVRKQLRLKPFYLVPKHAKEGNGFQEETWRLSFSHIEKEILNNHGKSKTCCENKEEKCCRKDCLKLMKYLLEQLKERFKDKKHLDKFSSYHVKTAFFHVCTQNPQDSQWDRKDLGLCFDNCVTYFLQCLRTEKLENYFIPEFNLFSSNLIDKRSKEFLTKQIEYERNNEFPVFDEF

## RU.521
  IC50: ~800 nM
